The record followed here is patent US7803825B2, “Aminoalkylazole derivatives as histamine-3 antagonists” (Wyeth LLC, priority 2007, dated 2010).

Each structure is given as a SMILES string. Counter-ions that a name gives are not always drawn.

The assay addresses T1, histamine-3 (H3) receptor (Homo sapiens, UniProt Q9Y5N1).
T1 construct: expressed in transfected cells; host or cells: HEK293T
The experiment in a line: Methyl Histamine Binding in Human Histamine-3 Receptor Cell Line. The following applies: membranes of stably transfected HEK293T cells, radioligand 1 nM, Ki from IC50 by Cheng-Prusoff. As for the experimental part: Evaluation of Methyl Histamine Binding in Human Histamine-3 Receptor Cell Line
The affinity of test compounds for the histamine-3 (H3) receptor is evaluated in the following manner. Stably transfected HEK293T cells are grown in DMEM containing 10% heat inactivated FBS and G-418 (500 ug/ml). Cells are scraped from the plate, transferred to centrifuge tubes, washed one time in PBS by centrifugation in a Sorvall RT7 Plus centrifuge (2000 rpm 10 minutes, 4° C.). The resulting pellets are stored at 80° C. until ready for use. Cells are re-suspended in buffer (50 mM Tris pH=7.5) and placed in a Dounce homogenizer, douncing ten times to homogenize cells. The homogenate is spun down by centrifugation (Sorvall RT7 Plus, 1800 rpm 10 minutes, 4° C.). The supernatant is placed in a Corex tube and spun down by centrifugation (Sorvall RC 5c Plus, 17,000 rpm 20 minutes, 4° C.). The pellet is resuspended in buffer (50 mM Tris, pH 7.5). Protein concentration (ug/ul) is determined using the Micro-BCA Protein Determination. The binding assay is set up in a 96 well microtiter plate in a total volume of 250 uL. Non-specific binding is determined in the presence of 10 uM clobenpropit. The final radioligand concentration is 1 nM. The test compound is serially diluted using the Beckman Biomek2000 to a final approximate range of 100 uM to 100 pM. Membranes are suspended in buffer, homogenized in 2 bursts of ten seconds using a Vitris mechanical homogenizer set at power setting 5. Ten μg of membranes are added to each well. Following a one hour incubation at 30° C., the reaction is terminated by the addition of ice cold buffer and rapid filtration with a Packard Filtermate Harvester through a GF/B filter pre-soaked with 1% PEI for one hour. The plate is dried for one hour at 37° C. and 60 μL Microscint Scintillant is added to each well. The CPM per well is measured on a Packard Top Count NXT. Ki values are determined in nM. The Ki is calculated from the IC50 (i.e. the concentration of competing ligand which displaces 50% of the specific binding of the radioligand). CPM values are expressed as % specific binding and plotted vs compound concentration. A curve is fitted using a four-parameter logistic fit and the IC50 value is determined. The Ki is calculated from this using the Cheng-Prusoff equation: […]=IC50/1+(L/Kd) where L=concentration of free radioligand used in the assay, and Kd is the dissociation constant of the radioligand for the receptor. L is determined for each experiment by counting an aliquot of the diluted radioligand (corresponding to that added to each well) and the Kd has previously been determined under identical conditions for this cell line/radioligand.

As a reminder, the Ki is the equilibrium dissociation constant of an inhibitor or competing ligand from its target. A high value points to lower affinity.

T1 sequence (Q9Y5N1 whole entry): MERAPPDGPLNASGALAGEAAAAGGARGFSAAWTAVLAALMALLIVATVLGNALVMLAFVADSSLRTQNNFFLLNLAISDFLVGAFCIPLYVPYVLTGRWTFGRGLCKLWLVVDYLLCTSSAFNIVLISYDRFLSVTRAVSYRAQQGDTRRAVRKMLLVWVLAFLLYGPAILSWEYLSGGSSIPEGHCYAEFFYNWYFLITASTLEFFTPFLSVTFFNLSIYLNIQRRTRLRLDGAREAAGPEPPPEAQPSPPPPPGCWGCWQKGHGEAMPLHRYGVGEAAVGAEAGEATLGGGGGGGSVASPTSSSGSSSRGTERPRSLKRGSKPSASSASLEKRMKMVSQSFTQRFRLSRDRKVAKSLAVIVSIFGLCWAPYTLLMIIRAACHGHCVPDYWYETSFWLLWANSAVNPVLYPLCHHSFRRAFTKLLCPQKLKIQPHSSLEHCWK

As for `C[C@@H]1CCCN1Cc1coc(-c2ccc(Cn3ncc4cc(F)ccc43)cc2)n1` [Example 95, 5-fluoro-1-[4-(4-{[(2R)-2-methylpyrrolidin-1-yl]methyl}-1,3-oxazol-2-yl)benzyl]-1H-indazole], the inhibitory constant (Ki) is 50.1 to 100 nM.
The same measure for `C[C@H]1CCCN1Cc1coc(-c2ccc(-c3nc4ccccc4n3CC3CCC3)cc2)n1` [Example 59, 1-(cyclobutylmethyl)-2-[4-(4-{[(2S)-2-methylpyrrolidin-1-yl]methyl}-1,3-oxazol-2-yl)phenyl]-1H-benzimidazole]: not above 10 nM; for `c1ccc(-c2nc3ccccc3n2Cc2ccc(-c3nc(CN4CCCCC4)co3)cc2)cc1` [Example 123, 2-phenyl-1-{4-[4-(piperidin-1-ylmethyl)-1,3-oxazol-2-yl]benzyl}-1H-benzimidazole]: not above 10 nM; for `c1ccc2c(c1)ccn2Cc1ccc(-c2nc(CN3CCCC3)co2)cc1` [Example 81, 1-{4-[4-(pyrrolidin-1-ylmethyl)-1,3-oxazol-2-yl]benzyl}-1H-indole Hydrochloride]: 50.1 to 100 nM.
The same measure for `c1ccc2c(c1)ncn2Cc1ccc(-c2nc(CN3CCCC3)co2)cc1` [Example 6B, 1-{4-[4-(Pyrrolidin-1-ylmethyl)-1,3-oxazol-2-yl]benzyl}-1H-benzimidazole Hydrochloride]: not above 10 nM; for `C[C@H]1CCCN1Cc1coc(-c2ccc(Cn3cnc4ccccc43)cc2)n1` [Example 20, 1-[4-(4-{[(2S)-2-methylpyrrolidin-1-yl]methyl}-1,3-oxazol-2-yl)benzyl]-1H-benzimidazole]: not above 10 nM; for `Cn1c(CN2CCCC2)cnc1-c1ccc(-c2ccccc2)cc1` [Example 146, 2-Biphenyl-4-yl-1-methyl-5-pyrrolidin-1-ylmethyl-1H-imidazole fumarate salt]: more than 100 nM.
Turning to `C[C@@H]1CCCN1Cc1coc(-c2ccc(Cn3c(-c4ccccc4)nc4ccccc43)cc2)n1` [Example 119, 1-[4-(4-{[(2R)-2-methylpyrrolidin-1-yl]methyl}-1,3-oxazol-2-yl)benzyl]-2-phenyl-1H-benzimidazole], the inhibitory constant (Ki) lay in the range of 10.1 to 25 nM.
The same measure for `F[C@@H]1CCN(Cc2coc(-c3ccc(Cn4cnc5ccccc54)cc3)n2)C1` [Example 21, 1-[4-(4-{[(3R)-3-fluoropyrrolidin-1-yl]methyl}-1,3-oxazol-2-yl)benzyl]-1H-benzimidazole]: 10.1 to 25 nM; for `CC1(C)CC2CC(C)(CN2Cc2cnc(-c3ccc(Cn4cnc5ccccc54)cc3)o2)C1` (stereo not shown) [Example 110, 1-(4-{5-[(1,3,3-trimethyl-6-azabicyclo[3.2.1]oct-6-yl)methyl]-1,3-oxazol-2-yl}benzyl)-1H-benzimidazole]: more than 100 nM; for `c1ccc2c(c1)ncn2-c1ccc(-c2nc(CN3CCCCCC3)co2)cc1` [Example 44, 1-{4-[4-(azepan-1-ylmethyl)-1,3-oxazol-2-yl]phenyl}-1H-benzimidazole]: 25.1 to 50 nM.
The same measure for `Fc1ccc2c(cnn2Cc2ccc(-c3nc(CN4CCCC4)co3)cc2)c1` [Example 100, 5-fluoro-1-{4-[4-(pyrrolidin-1-ylmethyl)-1,3-oxazol-2-yl]benzyl}-1H-indazole]: 10.1 to 25 nM; for `C[C@@H]1CCCN1Cc1coc(-c2ccc(Cn3ncc4ccc(F)cc43)cc2)n1` [Example 96, 6-fluoro-1-[4-(4-{[(2R)-2-methylpyrrolidin-1-yl]methyl}-1,3-oxazol-2-yl)benzyl]-1H-indazole]: 50.1 to 100 nM; for `CCN(CC)Cc1cnc(-c2ccc(Cn3cnc4ccccc43)cc2)o1` [Example 113, N-({2-[4-(1H-benzimidazol-1-ylmethyl)phenyl]-1,3-oxazol-5-yl}methyl)-N-ethylethanamine]: more than 100 nM.
`CN1CCN(Cc2coc(-c3ccc(Cn4cnc5ccccc54)cc3)n2)CC1` [Example 11] had a Ki of more than 100 nM.
In turn, `C[C@H]1CCCN1Cc1coc(-c2ccc(-c3nc4ccccc4n3CCC3CCCCC3)cc2)n1` [Example 61] returned a Ki of 25.1 to 50 nM.
The result for `Cn1c(-c2ccc(-c3nc(CN4CCCC4)co3)cc2)nc2ccccc21` [Example 51, 1-methyl-2-{4-[4-(pyrrolidin-1-ylmethyl)-1,3-oxazol-2-yl]phenyl}-1H-benzimidazole] reads not above 10 nM.
Compound `CCN(CC)Cc1coc(-c2ccc(Cn3cnc4ccccc43)cc2)n1` [Example 12, N-({2-[4-(1H-benzimidazol-1-ylmethyl)phenyl]-1,3-oxazol-4-yl}methyl)-N-ethylethanamine] came in with a Ki not above 10 nM.
The result for `CN(C)Cc1coc(-c2ccc(-n3cnc4ccccc43)cc2)n1` [Example 38] reads 10.1 to 25 nM.
The same measure for `CC1CCCN1Cc1coc(-c2ccc(Cn3cnc4ccccc43)cc2)n1` (stereo not shown) [Example 13, 1-(4-{4-[(2-methylpyrrolidin-1-yl)methyl]-1,3-oxazol-2-yl}benzyl)-1H-benzimidazole]: not above 10 nM; for `C[C@@H]1CCCN1Cc1coc(-c2ccc(Cn3cnc4ccccc43)cc2)n1` [Example 19, 1-[4-(4-{[(2R)-2-methylpyrrolidin-1-yl]methyl}-1,3-oxazol-2-yl)benzyl]-1H-benzimidazole]: not above 10 nM.
The same measure for `c1ccc2c(c1)ncn2-c1ccc(-c2nc(CN3CCOCC3)co2)cc1` [Example 40]: more than 100 nM; for `Cn1c(Cc2ccc(-c3nc(CN4CCCC4)co3)cc2)nc2ccccc21` [Example 67, 1-Methyl-2-{4-[4-(pyrrolidin-1-ylmethyl)-1,3-oxazol-2-yl]benzyl}-1H-benzimidazole Fumarate]: not above 10 nM; for `c1ccc2c(c1)ncn2Cc1ccc(-c2nc(CN3CCOCC3)co2)cc1` [Example 10, 1-{4-[4-(morpholin-4-ylmethyl)-1,3-oxazol-2-yl]benzyl}-1H-benzimidazole]: more than 100 nM.
The compound `C[C@H]1CCCN1Cc1coc(-c2ccc(Cn3c(-c4ccccc4)nc4ccccc43)cc2)n1` [Example 117, 1-[4-(4-{[(2S)-2-methylpyrrolidin-1-yl]methyl}-1,3-oxazol-2-yl)benzyl]-2-phenyl-1H-benzimidazole] registered a Ki not above 10 nM.
Consider `F[C@H]1CCN(Cc2coc(-c3ccc(Cn4cnc5ccccc54)cc3)n2)C1` [Example 22, 1-[4-(4-{[(3S)-3-fluoropyrrolidin-1-yl]methyl}-1,3-oxazol-2-yl)benzyl]-1H-benzimidazole], for which the inhibition constant (Ki) lay within 10.1 to 25 nM.
With `c1ccc2c(c1)ncn2Cc1ccc(-c2ncc(CN3CCCCCC3)o2)cc1` [Example 111, 1-{4-[5-(azepan-1-ylmethyl)-1,3-oxazol-2-yl]benzyl}-1H-benzimidazole], the Ki was more than 100 nM.
The result for `C[C@H]1CCCN1Cc1coc(-c2ccc(Cn3ncc4ccc(F)cc43)cc2)n1` [Example 99, 6-fluoro-1-[4-(4-{[(2S)-2-methylpyrrolidin-1-yl]methyl}-1,3-oxazol-2-yl)benzyl]-1H-indazole] reads 10.1 to 25 nM; that for `CN1CCN(Cc2coc(-c3ccc(-n4cnc5ccccc54)cc3)n2)CC1` [Example 41, 1-(4-{4-[(4-methylpiperazin-1-yl)methyl]-1,3-oxazol-2-yl}phenyl)-1H-benzimidazole], more than 100 nM.
The result for `CC1CCCN(Cc2coc(-c3ccc(-n4cnc5ccccc54)cc3)n2)C1` (stereo not shown) [Example 46, 1-(4-{4-[(3-methylpiperidin-1-yl)methyl]-1,3-oxazol-2-yl}phenyl)-1H-benzimidazole] reads not above 10 nM; that for `C[C@H]1CCCN1Cc1cnc(-c2ccc(Cn3cnc4ccccc43)cc2)n1C` [Example 140, (5)-1-(4-(1-methyl-5-((2-methylpyrrolidin-1-yl)methyl)-1H-imidazol-2-yl)benzyl)-1H-benzo[d]imidazole fumarate salt], not above 10 nM.
The same measure for `CC1CCCCN1Cc1coc(-c2ccc(-n3cnc4ccccc43)cc2)n1` (stereo not shown) [Example 45, 1-(4-{4-[(2-methylpiperidin-1-yl)methyl]-1,3-oxazol-2-yl}phenyl)-1H-benzimidazole]: not above 10 nM.
Turning to `C[C@H]1CCCN1Cc1coc(-c2ccc(Cn3c(C(F)(F)F)nc4ccccc43)cc2)n1` [Example 118, 1-[4-(4-{[(2S)-2-methylpyrrolidin-1-yl]methyl}-1,3-oxazol-2-yl)benzyl]-2-(trifluoromethyl)-1H-benzimidazole], the Ki lay within 10.1 to 25 nM.
The result for `Cn1c(CN2CCCC2)cnc1-c1ccc(-n2cnc3ccccc32)cc1` [Example 151, 1-[4-(1-Methyl-5-pyrrolidin-1-ylmethyl-1H-imidazol-2-yl)-phenyl]-1H-benzoimidazole fumarate salt] reads not above 10 nM.
